Test results as given in patent publication US11033569B2, “Compounds,Compositions, and methods for the treatment of disease” (Sperovie Biosciences, Inc., priority 2016, dated 2021).

Columns and labels:
[1] = Immunohistochemistry on tissues from treated mice; format: in vivo
THP1 cells [2] = assay: Caspase-Glo 3/7 apoptosis assay in THP1 cells; format: cell-based; conditions: THP1, Lipofectamine LTX, 20 h
Method: The Apoptosis in THP1 cells was assessed using Caspase-Glo® 3/7 Assay (Promega). […] The caspase-3 and -7 activity was measured by using a pro-luminescent caspase-3/7 substrate that contains the tetrapeptide sequence DEVD which is cleaved to release amino-luciferin, a substrate of luciferase used in the production of light. After incubation for 20 h, Apoptotic activity was assessed by measuring levels of amino-luciferin. % Apoptosis was calculated from fold-change in luminescence compared to DMSO-treated sample. CC50 values are generated by curve fit in Xlfit.

THP1 cells and PBMCs = assay: Caspase-Glo 3/7 apoptosis assay, THP1 vs. PBMCs; format: cell-based; conditions: Lipofectamine LTX, 20 h
Method: The Apoptosis in THP1 cells and PBMCs was assessed using Caspase-Glo® 3/7 Assay (Promega). […] The caspase-3 and -7 activity was measured by using a proluminescent caspase-3/7 substrate that contains the tetrapeptide sequence DEVD which will be cleaved to release aminoluciferin, a substrate of luciferase used in the production of light. After incubation for 20 h, Apoptotic activity was assessed by measure levels of aminoluciferin. % Apoptosis was calculated from fold change in luminescence compared to DMSO treated sample.

[3] = tested on: tumor cells and THP1 cells; assay: Tumor cell growth, high-content image-based approach
mouse macrophages = assay: Type I IFN signaling in mouse macrophages; format: cell-based; as to activity relative to natural STING ligand 3′,3′-cGAMP: test concentration or dose not given here
Method: Activity of secreted luciferase in cell culture supernatant was measured using Invivogen Quanti-luc. Data are shown as fold induction over DMSO treated cells (mean±standard deviation of triplicate wells per stimulant).

THP1 cells [4] = assay: Type III IFN (IL-29) production in THP1 cells (ELISA); format: cell-based; conditions: 21 hrs
Method: Level of IL-29 in culture supernatant was determined using ELISA. Results shown are the average±standard deviation of duplicate wells.

[5] = tested on: mouse A20 B cell lymphoma tumor cells; assay: Inhibition of mouse A20 B cell lymphoma tumor cells; conditions: FIGS. 48A-48D
[6] = tested on: A20 mouse B cell lymphoma tumor cells; assay: Apoptosis-related genes and ISGs in A20 mouse B cell lymphoma tumor cells; format: cell-based; conditions: compared with 2′3′-cGAMP
STING = molecular target: T1, STING (Homo sapiens, UniProt Q86WV6, G230A/H232R/R293Q/R71H); assay: Role of STING palmitoylation in THP1 cells; format: cell-based
T1 construct: endogenous in cells; host or cells: THP1 cells
T1 sequence (Q86WV6 whole entry R71H/G230A/H232R/R293Q): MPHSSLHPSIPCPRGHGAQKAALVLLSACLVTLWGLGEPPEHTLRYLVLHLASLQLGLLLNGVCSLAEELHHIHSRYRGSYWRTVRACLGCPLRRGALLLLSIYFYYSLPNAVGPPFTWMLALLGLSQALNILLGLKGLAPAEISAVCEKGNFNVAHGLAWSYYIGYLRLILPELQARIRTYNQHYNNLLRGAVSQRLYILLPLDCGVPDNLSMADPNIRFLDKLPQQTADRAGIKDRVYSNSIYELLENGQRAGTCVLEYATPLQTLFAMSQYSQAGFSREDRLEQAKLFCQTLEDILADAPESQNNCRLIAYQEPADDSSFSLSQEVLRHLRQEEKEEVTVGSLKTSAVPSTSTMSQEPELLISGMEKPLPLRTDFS

Question: Which results are given for `CCCCCCCCCCOc1ccc(C(=O)Oc2ccc(CSP3(=O)OC[C@H]4O[C@@H](n5cnc6c(N)ncnc65)[C@H](F)[C@@H]4OP(=O)(O)OC[C@H]4O[C@@H](n5ccc(=O)[nH]c5=O)[C@H](F)[C@@H]4O3)cc2)cc1.N` (stereo partly drawn) [Cmd 1]?
Answer: correlation of anti-tumor activity with immune response [1]: correlates with the induction of the innate and adaptive immune response; apoptosis (THP1 cells [2]): Causes Cell Death by Apoptosis; selectivity of apoptosis induction THP1 vs. PBMCs (THP1 cells and PBMCs): selective induction of apoptosis; anti-tumor activity ([3]; high-content image-based approach (FIG. 49)): anti-tumor activity; STING dependence of tumor cell growth inhibition ([3]; tumor cells and THP1 cells): STING dependent; tumor cell growth ([3]; tumor cells and THP1 cells, high-content image-based approach): inhibits tumor cell growth; activity relative to natural STING ligand 3′,3′-cGAMP (mouse macrophages; mouse macrophages (FIG. 36B)): more active; activation of type 1 IFN signaling (mouse macrophages; mouse macrophages, similar to 2′,3′-cGAMP): highly active; type III interferon (IL-29) production (THP1 cells [4]): induce type III interferon (IL-29) production; inhibition of tumor cells [5]: inhibits mouse A20 B cell lymphoma tumor cells; BAX/BCL2 ratio [6]: higher BAX/BCL2 ratio; involvement of STING palmitoylation in activation of NF-κB and IRF-type I interferon response (STING): palmitoylation of STING is involved
